Assay results taken from PMC6364417, “Kinase inhibitor library screening identifies synergistic drug combinations effective in sensitive and resistant melanoma cells” (Journal of Experimental & Clinical Cancer Research : CR, 2019).

What was measured:
Experiment in all cases: Kinase inhibitor library screening, PrestoBlue cell viability, 1 or 10 μM, 72 h
501Mel cells (parental) = conditions: 501Mel Parental, 72 h; for Cell viability in kinase inhibitor library screening, 501Mel Parental, 1μΜ / Cell viability in kinase inhibitor library screening, 501Mel Parental, 10μΜ: in %
Procedure, shortened: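 Values are % viability versus untreated wells, measured by PrestoBlue after a 72 h drug exposure. Screens covered the parental line plus sublines rendered resistant to Vemurafenib or Dabrafenib, each analysed in at least duplicate.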

A375 cells (parental) = conditions: A375 Parental, 72 h
[1] = system: A375-GP cells (Dabrafenib-resistant); conditions: A375 GP, 72 h
IGR37 cells (parental) = conditions: IGR37 Parental, 72 h; for Cell viability in kinase inhibitor library screening, IGR37 Parental, 1μΜ / Cell viability in kinase inhibitor library screening, IGR37 Parental, 10μΜ: in %
[2] = system: 501Mel-XP cells (Vemurafenib-resistant); conditions: 501Mel XP, 72 h; for Cell viability in kinase inhibitor library screening, 501Mel XP, 1μΜ / Cell viability in kinase inhibitor library screening, 501Mel XP, 10μΜ: in %
[3] = system: IGR37-XP cells (Vemurafenib-resistant); conditions: IGR37 XP, 72 h; for Cell viability in kinase inhibitor library screening, IGR37 XP, 1μΜ: in %
[4] = system: A375-XP cells (Vemurafenib-resistant); conditions: A375 XP, 72 h
[5] = system: IGR37-GP cells (Dabrafenib-resistant); conditions: IGR37 GP, 72 h; for Cell viability in kinase inhibitor library screening, IGR37 GP, 1μΜ: in %
[6] = system: 501Mel-GP cells (Dabrafenib-resistant); conditions: 501Mel GP, 72 h; for Cell viability in kinase inhibitor library screening, 501Mel GP, 1μΜ / Cell viability in kinase inhibitor library screening, 501Mel GP, 10μΜ: in %

CO[C@H]1C[C@@H]2CC[C@@H](C)[C@@](O)(O2)C(=O)C(=O)N2CCCC[C@H]2C(=O)O[C@H]([C@H](C)C[C@@H]2CC[C@@H](O)[C@H](OC)C2)CC(=O)[C@H](C)/C=C(\C)[C@@H](O)[C@@H](OC)C(=O)[C@H](C)C[C@H](C)/C=C/C=C/C=C/1C [Rapamycin (Sirolimus)]
Cell viability in kinase inhibitor library screening, 501Mel Parental, 1μΜ (501Mel cells (parental); 1μΜ): 84.7
Cell viability in kinase inhibitor library screening, 501Mel Parental, 10μΜ (501Mel cells (parental); 10μΜ): 77.5
Cell viability in kinase inhibitor library screening, A375 Parental, 10μΜ (A375 cells (parental); 10μΜ): 72.3
Cell viability in kinase inhibitor library screening, A375 Parental, 1μΜ (A375 cells (parental); 1μΜ): 80.2
Cell viability in kinase inhibitor library screening, A375 GP, 1μΜ ([1]; 1μΜ): 80.8
Cell viability in kinase inhibitor library screening, A375 GP, 10μΜ ([1]; 10μΜ): 79.4
Cell viability in kinase inhibitor library screening, IGR37 Parental, 1μΜ (IGR37 cells (parental); 1μΜ): 79.9
Cell viability in kinase inhibitor library screening, IGR37 Parental, 10μΜ (IGR37 cells (parental); 10μΜ): 81.5
Cell viability in kinase inhibitor library screening, 501Mel XP, 1μΜ ([2]; 1μΜ): 56.7
Cell viability in kinase inhibitor library screening, 501Mel XP, 10μΜ ([2]; 10μΜ): 42.7
Cell viability in kinase inhibitor library screening, IGR37 XP, 10μΜ ([3]; 10μΜ): 49.9%
Cell viability in kinase inhibitor library screening, IGR37 XP, 1μΜ ([3]; 1μΜ): 96.0
Cell viability in kinase inhibitor library screening, A375 XP, 1μΜ ([4]; 1μΜ): 79.4
Cell viability in kinase inhibitor library screening, A375 XP, 10μΜ ([4]; 10μΜ): 83.3
Cell viability in kinase inhibitor library screening, IGR37 GP, 10μΜ ([5]; 10μΜ): 76.7%
Cell viability in kinase inhibitor library screening, IGR37 GP, 1μΜ ([5]; 1μΜ): 92.2
Cell viability in kinase inhibitor library screening, 501Mel GP, 1μΜ ([6]; 1μΜ): 69.9
Cell viability in kinase inhibitor library screening, 501Mel GP, 10μΜ ([6]; 10μΜ): 59.4

CNC(=O)c1cc(Oc2ccc(NC(=O)Nc3ccc(Cl)c(C(F)(F)F)c3)c(F)c2)ccn1 [Regorafenib (BAY 73-4506)]
cell viability (kinase inhibitor library screening) (501Mel cells (parental); 1μΜ): 93.5%
cell viability (kinase inhibitor library screening) (501Mel cells (parental); 10μΜ): 53.2%
cell viability (kinase inhibitor library screening) (A375 cells (parental); 10μΜ): 32.8%
cell viability (kinase inhibitor library screening) (A375 cells (parental); 1μΜ): 96.5%
cell viability (kinase inhibitor library screening) ([1]; 1μΜ): 48.9%
cell viability (kinase inhibitor library screening) ([1]; 10μΜ): 22.9%
cell viability (kinase inhibitor library screening) (IGR37 cells (parental); 1μΜ): 94.8%
cell viability (kinase inhibitor library screening) (IGR37 cells (parental); 10μΜ): 42.7%
cell viability (kinase inhibitor library screening) ([2]; 1μΜ): 93.6%
cell viability (kinase inhibitor library screening) ([2]; 10μΜ): 47.1%
cell viability (kinase inhibitor library screening) ([3]; 1μΜ): 88.9%
cell viability (kinase inhibitor library screening) ([3]; 10μΜ): 14.8%
cell viability (kinase inhibitor library screening) ([4]; 1μΜ): 58.9%
cell viability (kinase inhibitor library screening) ([4]; 10μΜ): 18.1%
cell viability (kinase inhibitor library screening) ([5]; 1μΜ): 89.9%
cell viability (kinase inhibitor library screening) ([5]; 10μΜ): 47.7%
cell viability (kinase inhibitor library screening) ([6]; 1μΜ): 96.7%
cell viability (kinase inhibitor library screening) ([6]; 10μΜ): 48.3%

COc1cc(OC)c(/C=C/S(=O)(=O)Cc2ccc(OC)c(NCC(=O)O)c2)c(OC)c1 [Rigosertib (ON-01910)]
Cell viability in kinase inhibitor library screening, 501Mel Parental, 1μΜ (501Mel cells (parental); 1μΜ): 20.3
Cell viability in kinase inhibitor library screening, 501Mel Parental, 10μΜ (501Mel cells (parental); 10μΜ): 26.0
Cell viability in kinase inhibitor library screening, A375 Parental, 10μΜ (A375 cells (parental); 10μΜ): 15.2
Cell viability in kinase inhibitor library screening, A375 Parental, 1μΜ (A375 cells (parental); 1μΜ): 18.2
Cell viability in kinase inhibitor library screening, A375 GP, 1μΜ ([1]; 1μΜ): 19.7
Cell viability in kinase inhibitor library screening, A375 GP, 10μΜ ([1]; 10μΜ): 16.9
Cell viability in kinase inhibitor library screening, IGR37 Parental, 1μΜ (IGR37 cells (parental); 1μΜ): 11.0
Cell viability in kinase inhibitor library screening, IGR37 Parental, 10μΜ (IGR37 cells (parental); 10μΜ): 15.4
Cell viability in kinase inhibitor library screening, 501Mel XP, 1μΜ ([2]; 1μΜ): 9.5
Cell viability in kinase inhibitor library screening, 501Mel XP, 10μΜ ([2]; 10μΜ): 14.7
Cell viability in kinase inhibitor library screening, IGR37 XP, 10μΜ ([3]; 10μΜ): 35.5%
Cell viability in kinase inhibitor library screening, IGR37 XP, 1μΜ ([3]; 1μΜ): 55.9
Cell viability in kinase inhibitor library screening, A375 XP, 1μΜ ([4]; 1μΜ): 18.3
Cell viability in kinase inhibitor library screening, A375 XP, 10μΜ ([4]; 10μΜ): 9.8
Cell viability in kinase inhibitor library screening, IGR37 GP, 10μΜ ([5]; 10μΜ): 61.1%
Cell viability in kinase inhibitor library screening, IGR37 GP, 1μΜ ([5]; 1μΜ): 62.5
Cell viability in kinase inhibitor library screening, 501Mel GP, 1μΜ ([6]; 1μΜ): 16.6
Cell viability in kinase inhibitor library screening, 501Mel GP, 10μΜ ([6]; 10μΜ): 20.3
